Experimental data as given in patent US8916526B2, “Flavanone derivative” (National University Corporation Okayama University, priority 2009, dated 2014).
≈ marks a conversion by molar mass, not a printed value.

Experiments:
[1] = test system: Vancomycin intermediate-resistant Staphylococcus aureus Mu50; assay: In vitro infectivity assay (MIC), Exp. Ex. 2-1; format: cell-based; conditions: Staphylococcus aureus, VISA; Gram-positive; microdilution, MIC after 24 h; read-out: MIC VISA Mu50
Method in brief: (§1)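 CLSI broth dilution; Mueller-Hinton + 0.85% NaCl; inoculum ~10^5 CUF/[…]; 35° C, 24 h; MIC read, n=3.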

[2] = test system: Vancomycin-resistant enterococci FN-1; assay: In vitro infectivity assay (MIC), Exp. Ex. 2-1; format: cell-based; conditions: Enterococcus, VRE; Gram-positive; microdilution, MIC after 24 h; read-out: MIC VRE FN-1
Method in brief: as §1

[3] = test system: Vancomycin-resistant enterococci NCTC 12201; assay: In vitro infectivity assay (MIC), Exp. Ex. 2-1; format: cell-based; conditions: Enterococcus, NCTC 12201 / VRE; Gram-positive; microdilution, MIC after 24 h; read-out: MIC VRE NCTC 12201
Method in brief: as §1

[4] = test system: Methicillin sensitive S. aureus 209P; assay: In vitro infectivity assay (MIC), Exp. Ex. 2-1; format: cell-based, Staphylococcus aureus; conditions: Staphylococcus aureus, 209P / MSSA; Gram-positive; microdilution, MIC after 24 h; read-out: MIC MSSA 209P
Method in brief: as §1

[5] = test system: Methicillin-resistant S. aureus COL; assay: In vitro infectivity assay (MIC), Exp. Ex. 2-1; format: cell-based, Staphylococcus aureus; conditions: Staphylococcus aureus, MRSA; Gram-positive; microdilution, MIC after 24 h
[6] = test system: Methicillin-resistant S. aureus N315; assay: In vitro infectivity assay (MIC), Exp. Ex. 2-1; format: cell-based, Staphylococcus aureus; conditions: Staphylococcus aureus, MRSA; Gram-positive; microdilution, MIC after 24 h; read-out: MIC MRSA N315
Method in brief: as §1

[7] = test system: Methicillin-resistant S. aureus OM481; assay: In vitro infectivity assay (MIC), Exp. Ex. 2-1; format: cell-based, Staphylococcus aureus; conditions: Staphylococcus aureus, MRSA; Gram-positive; microdilution, MIC after 24 h; read-out: MIC MRSA OM481
Method in brief: as §1

[8] = test system: Methicillin-resistant S. aureus OM584; assay: In vitro infectivity assay (MIC), Exp. Ex. 2-1; format: cell-based, Staphylococcus aureus; conditions: Staphylococcus aureus, MRSA; Gram-positive; microdilution, MIC after 24 h; read-out: MIC MRSA OM584
Method in brief: as §1

[9] = test system: Streptococcus pneumoniae R6; assay: In vitro infectivity assay (MIC), Exp. Ex. 2-1; format: cell-based; conditions: Streptococcus pneumoniae, R6; Gram-positive; microdilution, MIC after 24 h; read-out: MIC S. Pneumoniae R6
Escherichia coli K-12 = assay: Antibacterial activity (MIC) against Gram-negative strains, microdilution; format: cell-based; conditions: K12, MIC after 24 h, read-out: MIC (Gram-nagative) K-12
Method in brief: (§2)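 CLSI broth microdilution in Mueller-Hinton broth with 0.85% NaCl, inoculum about 10^5 […]. Incubated 35° C for 24 hours; MIC taken as the minimum inhibitory concentration, measured three times.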

[10] = test system: Pseodomonas aeruginosa PAOI; assay: as above; format: cell-based; conditions: MIC after 24 h, read-out: MIC (Gram-nagative) PAO1
Method in brief: as §2

E. coli DNA gyrase = biological target: T1, E. coli DNA gyrase (Escherichia coli, UniProt P0AES4+P0AES6); assay: DNA gyrase inhibition (supercoiling kit), Exp. Ex. 2-2; format: biochemical
T1 construct: purchased John Innes Enterprises #K0001
Procedure: (§3) As a kit for measurement of DNA gyrase of Escherichia coli, a product purchased from John Innes Enterprises (Gyrase Supercoiling assay kit #K0001) was used. Relaxed DNA was modified with gyrase into supercoiled DNA, and reaction products were separated by electrophoresis depending on the sizes of the molecular weights to examine anti-gyrase effects (IC50). 1 unit (1 U) of DNA gyrase and […] of relaxed pBR322 DNA were added to […] of the reaction solution, and the mixture was allowed to react at 37° C. for 30 minutes in the presence of 35 mM Tris-HCl (pH 7.5), 24 mM KCl, 4 mM MgCl2, 2 mM DTT, 1.8 mM spermidine, 1 mM ATP, 6.5% (w/v) glycerol, and 0.1 mg/ml BSA. The reactions were stopped using […] of a reaction stop solution (40% sucrose, 100 mM Tris-HCl (pH 7.5), 1 mM EDTA, 0.5 mg/ml bromophenol blue).

[11] = biological target: T2, Escherichia coli Topoisomerase IV (Escherichia coli, UniProt P0AFI2+P20083); assay: Topoisomerase IV inhibition (decatenation kit), Exp. Ex. 2-3; format: biochemical; conditions: decatenation of kDNA, 37° C., 30 minutes; read-out: IC50 (E. coli topoisomerase IV inhibitions)
T2 construct: purchased John Innes Enterprises
Procedure: (§4) Staphylococcus aureus Topoisomerase IV and Escherichia coli Topoisomerase IV were purchased from John Innes Enterprises. 1 unit of topoisomerase IV was cultured with 200 ng of kinetoplast DNA (kDNA) in 30 L of a reaction solution at 37° C. for 30 minutes under the conditions of 50 mM Tris-HCl (pH 7.5) (S. aureus)/50 mM HEPES-KOH (pH 7.6) (E. coli), 5 mM MgCl2 (S. aureus)/5 mM magnesium acetate (E. coli), 350 mM potassium glutamate (S. aureus)/100 mM potassium glutamate (E. coli), 5 mM dithiotheri (S. aureus)/10 mM dithiotheri (E. coli), 1.5 mM ATP (S. aureus)/1 mM ATP (E. coli), and 40% (w/v) glycerol. The reactions were stopped by adding 8 L of a reaction stop solution (40% sucrose, 100 mM Tris.HCl (pH 7.5), 1 mM EDTA, 0.5 mg/ml bromophenol blue). Agarose gel (1.0%) was poured into TAE (40 mM Tris acetate, 2 mM EDTA).

[12] = biological target: T3, Staphylococcus aureus Topoisomerase IV (Staphylococcus aureus, UniProt P0C1S7+P0C1U9); assay: as above; format: biochemical
T3 construct: purchased John Innes Enterprises
Procedure: as §4

MRSA N315 = assay: In vitro infectivity assay (MIC), broth dilution, Exp. Ex. 1-1; format: cell-based, Staphylococcus aureus; conditions: MRSA N315, Mueller-Hinton broth, 35° C., 24 hours
Procedure: (§5) The antibacterial activities were measured based on broth dilution techniques of international standards (Clinical Laboratory Standards Institute: CLSI). The activities were shown by minimum inhibitory concentrations (MICs) determined by inoculating the above-mentioned strains at a concentration of about 10^5 […] into Mueller-Hinton broth (manufactured by Difco) containing 0.85% NaCl in 96-well microplates and incubating the plates at 35° C. for 24 hours. Measurement was carried out three times.
(§6) The antibacterial activities of the compounds of the present invention against various strains such as methicillin-resistant Staphylococcus aureus (MRSA), vancomycin intermediate-resistant Staphylococcus aureus (VISA), methicillin-sensitive Staphylococcus aureus (MSSA), and vancomycin-resistant enterococci (VRE) were examined. Of the bacteria used in MIC measurement in this test example, clinical bacteria of MRSA (OM481 strain and OM584 strain) were supplied from Okayama University Hospital (Japan). An MRSA strain N315, a vancomycin intermediate-resistant Staphylococcus aureus (VISA) strain Mu50, and a methicillin-sensitive Staphylococcus aureus (MSSA) strain FDA 209P were used as controls. Vancomycin-resistant enterococcus (VRE) strains NCTC 12201 and FN-1 were supplied from the National Institute of Infectious Disease (Japan).

MRSA OM481 = assay: as above; format: cell-based, Staphylococcus aureus; conditions: MRSA OM481, Mueller-Hinton broth, 35° C., 24 hours
Procedure: as §5, §6

MRSA OM58 = assay: as above; format: cell-based, Staphylococcus aureus; conditions: MRSA OM58, Mueller-Hinton broth, 35° C., 24 hours
Procedure: as §5, §6

MSSA FDA 209P = assay: as above; format: cell-based, Staphylococcus aureus; conditions: MSSA FDA 209P, Mueller-Hinton broth, 35° C., 24 hours
Procedure: as §5, §6

VISA Mu50 = assay: as above; format: cell-based, Staphylococcus aureus; conditions: VISA Mu50, Mueller-Hinton broth, 35° C., 24 hours
Procedure: as §5, §6

VRE FN-1 = assay: as above; format: cell-based, enterococci; conditions: VRE FN-1, Mueller-Hinton broth, 35° C., 24 hours
Procedure: as §5, §6

VRE NCTC12201 = assay: as above; format: cell-based, enterococci; conditions: VRE NCTC12201, Mueller-Hinton broth, 35° C., 24 hours
Procedure: as §5, §6

[13] = biological target: T4, DNA gyrase of Escherichia coli (Escherichia coli, UniProt P0AES4+P0AES6); assay: DNA gyrase inhibition (supercoiling assay kit), Exp. Ex. 1-2; format: biochemical; conditions: E. coli DNA gyrase supercoiling, relaxed pBR322, 37° C., 30 minutes
T4 construct: purchased John Innes Enterprises #K0001
Procedure: as §3, with “(IC50). One” for “(IC50). 1”

T4 sequence (P0AES4 whole entry, one chain of several): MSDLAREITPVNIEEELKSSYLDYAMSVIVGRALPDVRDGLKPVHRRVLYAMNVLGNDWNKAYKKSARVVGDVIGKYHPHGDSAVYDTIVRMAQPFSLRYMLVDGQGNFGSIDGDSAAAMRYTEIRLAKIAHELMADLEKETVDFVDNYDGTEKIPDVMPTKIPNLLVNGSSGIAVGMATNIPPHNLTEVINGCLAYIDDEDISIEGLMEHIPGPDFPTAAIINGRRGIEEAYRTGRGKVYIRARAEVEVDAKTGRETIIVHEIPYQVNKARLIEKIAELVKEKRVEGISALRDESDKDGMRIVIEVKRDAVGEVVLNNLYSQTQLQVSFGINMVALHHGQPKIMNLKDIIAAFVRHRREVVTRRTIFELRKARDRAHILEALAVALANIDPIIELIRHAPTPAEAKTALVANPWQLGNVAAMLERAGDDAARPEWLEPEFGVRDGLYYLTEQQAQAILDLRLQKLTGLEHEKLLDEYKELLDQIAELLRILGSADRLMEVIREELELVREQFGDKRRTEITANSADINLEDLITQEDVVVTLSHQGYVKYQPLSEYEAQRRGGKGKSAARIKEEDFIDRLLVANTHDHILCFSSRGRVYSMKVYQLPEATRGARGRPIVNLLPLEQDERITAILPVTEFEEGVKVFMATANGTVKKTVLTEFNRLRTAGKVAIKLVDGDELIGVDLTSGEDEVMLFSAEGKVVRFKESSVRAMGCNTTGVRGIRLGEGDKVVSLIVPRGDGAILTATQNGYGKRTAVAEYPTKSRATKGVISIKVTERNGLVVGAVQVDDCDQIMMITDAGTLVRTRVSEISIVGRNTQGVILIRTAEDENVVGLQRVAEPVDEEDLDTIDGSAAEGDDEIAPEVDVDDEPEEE
T3 sequence (P0C1U9 whole entry): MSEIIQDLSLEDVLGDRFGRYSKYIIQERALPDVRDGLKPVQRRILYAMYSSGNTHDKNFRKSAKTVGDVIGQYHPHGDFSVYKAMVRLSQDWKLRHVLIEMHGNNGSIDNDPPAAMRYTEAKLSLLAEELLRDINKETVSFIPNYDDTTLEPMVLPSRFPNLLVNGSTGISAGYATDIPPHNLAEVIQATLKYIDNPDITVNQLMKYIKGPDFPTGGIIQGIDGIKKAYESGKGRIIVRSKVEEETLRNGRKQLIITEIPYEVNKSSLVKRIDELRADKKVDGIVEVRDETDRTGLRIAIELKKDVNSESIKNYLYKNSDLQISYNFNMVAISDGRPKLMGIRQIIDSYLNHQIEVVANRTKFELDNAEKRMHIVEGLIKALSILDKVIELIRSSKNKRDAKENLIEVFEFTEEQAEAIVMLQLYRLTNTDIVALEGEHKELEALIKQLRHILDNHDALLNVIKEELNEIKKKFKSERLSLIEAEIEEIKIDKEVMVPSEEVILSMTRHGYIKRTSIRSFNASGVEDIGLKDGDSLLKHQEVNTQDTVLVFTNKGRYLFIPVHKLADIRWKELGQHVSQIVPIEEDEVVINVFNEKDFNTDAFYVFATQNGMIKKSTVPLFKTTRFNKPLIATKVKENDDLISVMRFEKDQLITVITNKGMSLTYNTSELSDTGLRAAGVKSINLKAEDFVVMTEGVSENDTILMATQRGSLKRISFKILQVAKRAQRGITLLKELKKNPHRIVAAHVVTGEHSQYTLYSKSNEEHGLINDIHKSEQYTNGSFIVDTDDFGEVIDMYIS
T3 sequence (P0C1S7 whole entry): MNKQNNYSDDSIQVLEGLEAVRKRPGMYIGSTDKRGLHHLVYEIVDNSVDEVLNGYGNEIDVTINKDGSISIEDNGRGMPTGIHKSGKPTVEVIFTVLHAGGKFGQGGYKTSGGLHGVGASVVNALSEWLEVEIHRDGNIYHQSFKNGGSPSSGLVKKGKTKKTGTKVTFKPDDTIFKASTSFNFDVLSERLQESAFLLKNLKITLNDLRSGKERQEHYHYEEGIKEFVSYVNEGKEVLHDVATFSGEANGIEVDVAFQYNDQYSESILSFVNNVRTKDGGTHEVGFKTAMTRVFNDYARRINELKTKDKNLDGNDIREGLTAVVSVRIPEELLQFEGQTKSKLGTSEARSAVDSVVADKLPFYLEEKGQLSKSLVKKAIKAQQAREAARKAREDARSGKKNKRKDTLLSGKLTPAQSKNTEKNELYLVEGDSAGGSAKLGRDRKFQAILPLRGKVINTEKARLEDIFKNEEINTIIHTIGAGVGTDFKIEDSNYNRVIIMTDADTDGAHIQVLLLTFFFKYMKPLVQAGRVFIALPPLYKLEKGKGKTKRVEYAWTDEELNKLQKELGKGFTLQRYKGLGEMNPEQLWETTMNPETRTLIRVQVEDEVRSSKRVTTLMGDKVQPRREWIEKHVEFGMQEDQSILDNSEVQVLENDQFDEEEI
T1 sequence (P0AES4 whole entry, one chain of several): as the sequence (P0AES4 whole entry, one chain of several) above
T2 sequence (P20083 whole entry): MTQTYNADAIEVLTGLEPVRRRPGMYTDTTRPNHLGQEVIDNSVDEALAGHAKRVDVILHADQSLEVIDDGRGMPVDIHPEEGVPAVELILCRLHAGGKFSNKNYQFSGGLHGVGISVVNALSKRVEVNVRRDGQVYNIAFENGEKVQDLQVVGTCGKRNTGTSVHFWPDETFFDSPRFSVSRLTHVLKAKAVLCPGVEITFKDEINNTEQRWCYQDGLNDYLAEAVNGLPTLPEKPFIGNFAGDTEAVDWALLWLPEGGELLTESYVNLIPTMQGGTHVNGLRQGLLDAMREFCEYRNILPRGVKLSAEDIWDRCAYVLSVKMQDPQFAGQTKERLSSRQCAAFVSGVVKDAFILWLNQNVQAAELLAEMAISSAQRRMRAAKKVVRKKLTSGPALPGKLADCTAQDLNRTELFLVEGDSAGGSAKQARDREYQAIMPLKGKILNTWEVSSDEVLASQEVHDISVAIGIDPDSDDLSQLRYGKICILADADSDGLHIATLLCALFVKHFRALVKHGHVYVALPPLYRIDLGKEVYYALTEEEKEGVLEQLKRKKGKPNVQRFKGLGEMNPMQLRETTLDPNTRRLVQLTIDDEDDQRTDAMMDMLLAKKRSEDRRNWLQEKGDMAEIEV
T2 sequence (P0AFI2 whole entry): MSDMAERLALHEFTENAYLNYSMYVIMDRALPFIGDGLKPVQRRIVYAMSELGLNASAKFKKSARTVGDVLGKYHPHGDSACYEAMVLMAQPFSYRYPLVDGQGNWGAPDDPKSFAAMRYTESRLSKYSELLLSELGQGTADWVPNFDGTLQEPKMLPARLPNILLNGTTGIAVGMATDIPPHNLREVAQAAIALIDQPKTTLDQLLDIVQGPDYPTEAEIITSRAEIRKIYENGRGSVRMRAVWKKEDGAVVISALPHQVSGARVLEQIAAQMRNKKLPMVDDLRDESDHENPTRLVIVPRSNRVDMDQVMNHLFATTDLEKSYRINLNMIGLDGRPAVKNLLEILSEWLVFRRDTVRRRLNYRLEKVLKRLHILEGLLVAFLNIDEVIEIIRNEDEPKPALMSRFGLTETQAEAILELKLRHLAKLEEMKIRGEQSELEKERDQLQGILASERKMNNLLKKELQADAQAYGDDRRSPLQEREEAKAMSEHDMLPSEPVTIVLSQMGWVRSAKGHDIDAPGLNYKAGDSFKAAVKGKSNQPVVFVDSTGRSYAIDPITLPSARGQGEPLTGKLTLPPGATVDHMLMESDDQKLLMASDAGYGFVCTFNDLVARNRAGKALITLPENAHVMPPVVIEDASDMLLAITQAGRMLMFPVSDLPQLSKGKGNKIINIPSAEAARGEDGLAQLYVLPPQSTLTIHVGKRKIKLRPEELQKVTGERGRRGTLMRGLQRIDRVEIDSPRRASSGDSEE

In the case of Cc1ccc(CCC(=O)c2cc(O)c3c(=O)c(C(=O)CCc4ccc(C)cc4)c(-c4ccc(O)c(O)c4)oc3c2)cc1 [Compound 2a, 2-(3′,4′-Dihydroxyphenyl)-5-hydroxy-3,7-di-(4-methylphenylpropanoyl)-4H-chromen-4-one], the melting point is reported as 105 to 107 °C.

For O=c1c([C@@H]2O[C@H](CO)[C@H](O)[C@H](O)[C@H]2O)c(-c2ccc(O)c(O)c2)oc2cc([C@@H]3O[C@H](CO)[C@H](O)[C@H](O)[C@H]3O)cc(O)c12 [Compound 6, 2-(3′,4′-Dihydroxyphenyl)-5-hydroxy-3,7-di-β-D-galactosyl-4H-chromen-4-one], the melting point was 215 to 217 °C.

O=C(CCc1ccc(O)cc1)OC[C@H]1O[C@@H](Oc2c(-c3ccc(O)c(O)c3)oc3cc(O)cc(O)c3c2=O)[C@H](OC(=O)CCc2ccc(O)cc2)[C@@H](O)[C@H]1O [Compound 14f, 2-(3′,4′-Dihydroxyphenyl)-5,7-dihydroxy-3-β-D-{2″,6″-di-O-[3′″-(4-hydroxyphenylpropanoyl)]}galactosyl-4H-chromen-4-one] showed an MIC [1] of 2 µg/mL (≈ 2.63 µM), an MIC [2] of 4 µg/mL (≈ 5.26 µM) and an MIC [3] of 4 µg/mL (≈ 5.26 µM). For the same molecule, the MIC [4] was 2 µg/mL (≈ 2.63 µM), the MIC [5] was 4 µg/mL (≈ 5.26 µM) and the MIC [6] was 2 µg/mL (≈ 2.63 µM). For the same molecule, the MIC [7] was 1 µg/mL (≈ 1.31 µM), the MIC [8] was 1 µg/mL (≈ 1.31 µM) and the MIC [9] was 4 µg/mL (≈ 5.26 µM). The MIC (Escherichia coli K-12) was > 128 µg/mL, the MIC [10] was > 128 µg/mL and the IC50 (E. coli DNA gyrase) was 2390 nM. For the same molecule, the IC50 [11] was 8860 nM, the IC50 [12] was 1590 nM and the melting point was 149 to 150 °C.

O=C(CCc1ccc(F)cc1)c1cc(O)c2c(=O)c(C(=O)CCc3ccc(F)cc3)c(-c3ccc(O)c(O)c3)oc2c1 [Compound 2b, 2-(3′,4′-Dihydroxyphenyl)-5-hydroxy-3,7-di-(4-fluorophenylpropanoyl)-4H-chromen-4-one] showed a melting point of 119 to 121 °C.

For CCOc1ccc(CCC(=O)O[C@H]2[C@H](Oc3c(-c4ccc(O)c(O)c4)oc4cc(O)cc(O)c4c3=O)O[C@H](CO)[C@@H](O)[C@@H]2OC(=O)CCc2ccc(OCC)cc2)cc1 [Compound 15b, 2-(3′,4′-Dihydroxy)-5,7-dihydroxy-3-β-D-(2″,3″-di-p-ethoxyphenylethylcarboxy)glucosyl-4H-chromen-4-one], the “MIC MRSA N315” value (MRSA N315) was 2 µg/mL (≈ 2.45 µM), the “MIC MRSA OM481” value (MRSA OM481) was 4 µg/mL (≈ 4.9 µM) and the “MIC MRSA OM58” value (MRSA OM58) was 8 µg/mL (≈ 9.79 µM). The “MIC MSS 209P” value (MSSA FDA 209P) was 2 µg/mL (≈ 2.45 µM), the “MIC VISA Mu50” value (VISA Mu50) was 4 µg/mL (≈ 4.9 µM) and the “MIC VRE FN-1” value (VRE FN-1) was 8 µg/mL (≈ 9.79 µM). For the same molecule, the “MIC VRE NCTC 12201” value (VRE NCTC12201) was 8 µg/mL (≈ 9.79 µM) and the “Gyrase inhibitory activity IC50” value [13] was 9.23 µg/mL.

With O=c1c(O[C@@H]2O[C@H](CO)[C@@H](O)[C@H](O)[C@H]2O)c(-c2ccc(O)c(O)c2)oc2cc(O)cc(O)c12 [Compound 17, 2-(3′4′-Dihydroxy)-5,7-dihydroxy-3-β-D-glucosyl-4H-chromen-4-one] the MIC (MRSA N315; Staphylococcus aureus, read-out: MIC MRSA N315) was > 128 µg/mL, the MIC (MRSA OM481; Staphylococcus aureus, read-out: MIC MRSA OM481) was > 128 µg/mL and the MIC (MRSA OM58; Staphylococcus aureus, read-out: MIC MRSA OM58) was > 128 µg/mL. The MIC (MSSA FDA 209P; Staphylococcus aureus, read-out: MIC MSS 209P) was > 128 µg/mL, the MIC (VISA Mu50; Staphylococcus aureus, read-out: MIC VISA Mu50) was > 128 µg/mL and the MIC (VRE FN-1; Enterococcus, read-out: MIC VRE FN-1) was > 128 µg/mL. The MIC (VRE NCTC12201; Enterococcus, read-out: MIC VRE NCTC12201) was > 128 µg/mL and the IC50 ([13]; read-out: Gyrase inhibitory activity IC50 (converted)) was > 25800 nM.
